Source: paper PMC5187899, “Discovery of Anti-Hypertensive Oligopeptides from Adlay Based on In Silico Proteolysis and Virtual Screening” (International Journal of Molecular Sciences, 2016)
No end group written: not given here.

Molecular target: T1, ACE from rabbit lungs (Oryctolagus cuniculus, UniProt P12822)
T1 construct: ACE from rabbit lungs and HHL was supplied by Sigma-Aldrich; purchased Sigma-Aldrich (St. Louis, MO, USA); host or cells: rabbit lung tissue
T1 sequence (P12822 34-1310): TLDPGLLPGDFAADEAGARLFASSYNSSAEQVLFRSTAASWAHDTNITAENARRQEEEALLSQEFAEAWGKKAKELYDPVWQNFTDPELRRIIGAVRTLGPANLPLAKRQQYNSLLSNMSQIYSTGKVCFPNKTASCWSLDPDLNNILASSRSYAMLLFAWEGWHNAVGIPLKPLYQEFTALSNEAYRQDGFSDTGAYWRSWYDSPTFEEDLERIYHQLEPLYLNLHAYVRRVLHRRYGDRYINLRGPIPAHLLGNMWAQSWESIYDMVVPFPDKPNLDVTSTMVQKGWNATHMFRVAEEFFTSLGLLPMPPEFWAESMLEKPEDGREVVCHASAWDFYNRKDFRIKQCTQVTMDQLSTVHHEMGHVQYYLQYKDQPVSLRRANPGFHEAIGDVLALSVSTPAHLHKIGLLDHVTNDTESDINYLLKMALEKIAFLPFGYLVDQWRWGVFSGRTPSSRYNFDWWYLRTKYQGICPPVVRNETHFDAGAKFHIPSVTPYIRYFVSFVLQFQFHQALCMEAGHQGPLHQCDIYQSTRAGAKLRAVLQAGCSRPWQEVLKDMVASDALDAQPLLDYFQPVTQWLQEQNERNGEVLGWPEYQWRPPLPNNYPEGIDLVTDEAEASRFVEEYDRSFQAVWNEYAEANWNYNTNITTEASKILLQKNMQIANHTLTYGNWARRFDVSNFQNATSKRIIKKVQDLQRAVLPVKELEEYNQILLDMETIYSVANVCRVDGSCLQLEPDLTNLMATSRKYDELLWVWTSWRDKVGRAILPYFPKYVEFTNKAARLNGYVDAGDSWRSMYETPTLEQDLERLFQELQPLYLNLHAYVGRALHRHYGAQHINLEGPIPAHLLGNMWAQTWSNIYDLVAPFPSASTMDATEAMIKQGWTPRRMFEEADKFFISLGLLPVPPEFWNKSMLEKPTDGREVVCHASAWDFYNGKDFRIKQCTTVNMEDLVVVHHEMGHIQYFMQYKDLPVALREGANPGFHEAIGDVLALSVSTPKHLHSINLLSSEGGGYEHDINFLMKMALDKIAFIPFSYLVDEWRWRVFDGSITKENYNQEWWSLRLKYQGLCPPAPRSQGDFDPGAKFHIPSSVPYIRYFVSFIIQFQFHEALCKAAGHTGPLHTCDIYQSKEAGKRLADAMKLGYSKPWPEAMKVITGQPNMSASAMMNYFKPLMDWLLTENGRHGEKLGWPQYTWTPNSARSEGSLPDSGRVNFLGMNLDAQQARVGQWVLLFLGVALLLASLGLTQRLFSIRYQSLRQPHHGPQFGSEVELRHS
Assay: ACE inhibitory activity assay by RP-HPLC (HHL substrate, hippuric acid detection)
Type: biochemical
Settings: for ACE inhibitory activity (in words): chromatograms at 0.048 mg/mL
Description: The potential oligopeptides obtained by docking were chemically synthesized by the Beijing Scilight Biotechnology Ltd., Co. (Beijing, China). The purity levels of the synthesized oligopeptides were all greater than 98% by HPLC analysis. ACE from rabbit lungs and HHL was supplied by Sigma-Aldrich (St. Louis, MO, USA). Acetonitrile of HPLC grade was purchased from Fisher Scientific (Pittsburgh, PA, USA). Lisinopril was supplied by Beijing HWRK Chem Co., Ltd. (Beijing, China) with more than 98% purity. All other used chemicals were of analytical grade.
The assay of in vitro ACE inhibitory activity was performed by RP-HPLC method by Yuan. Initially, the mixture was incubated at 37 °C for 10 min, including 10 μL of samples and 20 μL ACE (2 mU). After adding 20 μL of 2 mM HHL, the mixture continued to be incubated for 60 min until acetonitrile was added to terminate reaction. HA from the hydrolysis of the substrate HHL was detected by RP-HPLC on a C18 column (250 × 4.6 mm, 5 μm, Tianhe) at 228 nm. The column was eluted at a flow rate of 1 mL/min using 25% (v/v) acetonitrile in water with 0.05% trifluoroacetic acid. Lisinopril and borate buffer solution were used as positive and negative control, respectively. The formula (1) for computing ACE inhibitory rate is shown as follows. Wherein, Acontrol is the peak area of HA by negative control and Asample is the peak area of HA by the sample. The IC50 was calculated by the dosage and efficiency curve based on the 50% inhibition of ACE. (1) Inhibitory activity (%)=Acontrol−Asample/Acontrol×100%

Molecule | ACE inhibitory activity (in words) (RP-HPLC) | further results
NCCCC[C@H](N[C@@H](CCc1ccccc1)C(=O)O)C(=O)N1CCC[C@H]1C(=O)O [Lisinopril, lisinopril, reference compound] |  | ACE inhibition ratio (lisinopril 2 × 10^−9 mol/L, RP-HPLC, 228 nm, 37 °C, 2 mM HHL, 60 min): 77.86% ± 0.15%
NCHEF [oligopeptide from in silico proteolysis of adlay prolamins, chemically synthesized] | could not obtain the desirable activities of ACE | 
NPATY [NPATY] |  | IC50 (RP-HPLC on C18 column, 228 nm, 10 μL sample + 20 μL ACE (2 mU), 37 °C 10 min pre-incubation, 20 μL of 2 mM HHL, 60 min, from dosage and efficiency curve): 61.9 ± 2.77 µM
VSAIGF [oligopeptide from in silico proteolysis of adlay prolamins, chemically synthesized] | could not obtain the desirable activities of ACE | 
